According to patent US20240319167A1, “CELL INFORMATION ACQUISITION METHOD, AND PROGRAM” (CANON KABUSHIKI KAISHA, priority 2023, published 2024):

How the values were obtained:
[1] = test system: COR-L23 cells; assay: Autofluorescence luminance ratio (G component/B component) after adding metabolism changing reagent; type: cell-based, human; conditions: antimycin A 1 μM where added, incubated an hour after D-glucose removal, FIG. 3
Procedure: (§1) Human lung cancer cells NCI-H322 (KAC Co., Ltd.) were cultured in a culture medium 103 for cell culture (KAC Co., Ltd.). Human lung cancer cells COR-L23 (KAC Co., Ltd.) were cultured in a culture medium 103 for cell culture (KAC Co., Ltd.). A cell culture vessel was a 35 mm glass bottom dish (IWAKI) for any case. […] The area of a nucleus region was acquired and labelled. […] Average value of G component/Average value of B component was calculated cell by cell and plotted as a box-and-whisker plot (FIG. 3). […] NCI-H322 cells were cultured in a 35 mm glass bottom dish, and COR-L23 cells were cultured in a 35 mm glass bottom dish. […] As negative control, only removal of D-glucose was performed for both NCI-H322 cells and COR-L23 cells to create samples not added with a metabolism changing reagent. An autofluorescence image of each of the samples was captured. Subsequently, nuclear staining and mitochondria staining were performed to stain nuclei and mitochondria, and similarly stained images were captured with an image capturing apparatus.

[2] = test system: NCI-H322 cells; assay: as above; type: cell-based, human; conditions: antimycin A 1 μM where added, incubated an hour after D-glucose removal, FIG. 3
Procedure: as §1

O=C[C@H](O)[C@@H](O)[C@H](O)[C@H](O)CO [D-glucose]
G component/B component of autofluorescence (365 nm excitation/430 nm long pass filter) versus negative control [1]: no significant difference | G component/B component of autofluorescence (365 nm excitation/430 nm long pass filter) versus negative control [2]: no significant difference
